Assay results taken from patent US6866845B1, “Compositions and methods for the treatment of sepsis” (The Regents of the University of Michigan, priority 1999, dated 2005).
Values belong to the molecule of their own block, whether it stands above or below them. Where no end group is shown, it is not given here.

Experiments:
[1] = tested on: human neutrophils; experiment: chemotaxis of human neutrophils in chemotactic chambers; format: cell-based; details: for chemotactic activity of KLH conjugate compared to C5a peptide: calculated synthetic peptide concentration 100 nM, peptide:KLH approximately 3:1; for chemotactic response to peptide in medium alone: 1 μM peptide; for reduction in the chemotactic responses of neutrophils to human C5a: 1 μM peptide with 10 μM human C5a
Experimental: This Example describes the ability of certain synthetic peptides representative of regions of human C5a peptide to reduce the chemotactic response of human neutrophils to human C5a peptide. Human neutrophils were isolated from human blood by traditional Ficoll-Hypaque sedimentation techniques. Using standardized methodology, neutrophils (5×10^6/ml) labeled with 1 μg/ml BCECF [2′,7′-(2 carboxyethyl)-5-(and-6)-carboxyfluroscein, acetoxymethy ester) at 37° C. for 30 min, were applied to the upper compartments of […] The two compartments were separated by a membrane with pore sizes of 3 μm. Neutrophil chemotactic responses were quantitated by cytofluorometry.
[…] Peptide A (SEQ ID NO:4) represents residues 1-20 of human C5a peptide, peptide M (SEQ ID NO: 5) represents residues 21-40 of human C5a peptide, and peptide C (SEQ ID NO:6) represents residues 55-74 of human C5a peptide.
This Example describes neutrophil chemotactic activity of peptides A, M, and C linked to keyholelimpet hemocyanin (KLH) employing the chemotactic assay described in Example 7. The peptide:KLH molar ratios employed were approximately 3:1. […]

[2] = tested on: human neutrophils; experiment: competition with 125I-hC5a peptide binding to human neutrophils; details: ratio of peptide to labelled hC5a 10:1
From the text: This Examples describes certain peptides which are able to antagonize the ability of human C5a peptide to bind to human neutrophils. Three different peptides, labelled A, M, and C, were used to antagonize the binding of ^125I-hC5a peptide to human neutrophils. Again, peptide A (SEQ ID NO:4) represents residues 1-20 of human C5a peptide, peptide M (SEQ ID NO: 5) represents residues 21-40 of human C5a peptide, and peptide C (SEQ ID NO:6) represents residues 55-74 of human C5a peptide.
Human peripheral blood neutrophils (1×10^7 cells/ml) were incubated in Hank's buffered saline plus 0.1% bovine serum albumin with both ^123]-labelled hC5a peptide (300 μCi/nmol) and either peptide A, M, or C, in a final volume of 200 μl in a microfuge tube. The ratio of the shorter peptides (A, M, or C) to ^1251]-labelled hC5a peptide was 10:1. After incubation, cell suspension were layered over a 20% sucrose gradient and were sedimented by centrifugation at 11,000 g. The tubes were then frozen on dry ice, followed by cutting the tips containing the pellet. Cell-bound label was then determined by placing the tips in a gamma counter.

[3] = tested on: human neutrophils; experiment: H2O2 production of human neutrophils stimulated by PMA; format: cell-based; details: for inhibition of PMA-elicited H2O2 response: neutrophils pretreated with peptide, then PMA
From the text: This Example describes the effect of human C5a peptide, and certain shorter synthetic human C5a peptides A, M, or C, to inhibit the H2O2 production of human neutrophils stimulated by phorbol myristate acetate (PMA). Again, peptide A (SEQ ID NO:4) represents residues 1-20 of human C5a peptide, peptide M (SEQ ID NO: 5) represents residues 21-40 of human C5a peptide, and peptide C (SEQ ID NO:6) represents residues 55-74 of human C5a peptide. Human neutrophils were isolated and then pretreated with C5a peptide or one of the shorter synthetic peptides (A, M, or C). Cells were then stimulated with PMA and the production of H2O2 was measured.

[4] = target: human peripheral blood neutrophils (surface sites that bind human C5a peptide) (human) (UniProt P21730); experiment: cell-based or functional assay
[5] = target: rat C5a peptide (full length) (rat) (UniProt P08650); experiment: flow cytometry on rat blood neutrophils, control stain
Chain of UniProt P08650 (P08650 679-755 limits assumed): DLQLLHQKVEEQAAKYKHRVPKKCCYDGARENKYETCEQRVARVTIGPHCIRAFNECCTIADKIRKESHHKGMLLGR

Chain of UniProt P21730 (P21730 whole entry): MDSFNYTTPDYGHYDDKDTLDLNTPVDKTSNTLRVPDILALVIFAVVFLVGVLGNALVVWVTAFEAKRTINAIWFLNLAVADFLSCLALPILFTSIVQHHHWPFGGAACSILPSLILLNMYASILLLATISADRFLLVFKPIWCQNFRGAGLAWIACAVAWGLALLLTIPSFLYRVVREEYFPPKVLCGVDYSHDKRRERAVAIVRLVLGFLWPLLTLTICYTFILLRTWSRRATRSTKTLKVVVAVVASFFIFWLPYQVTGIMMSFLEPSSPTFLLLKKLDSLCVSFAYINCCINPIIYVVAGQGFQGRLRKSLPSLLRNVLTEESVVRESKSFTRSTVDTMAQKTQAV

Molecule: A peptide KLH conjugate: peptide A (SEQ ID NO:4) linked to keyhole limpet hemocyanin, peptide:KLH approximately 3:1 (MLQKKIEEIAAKYKHSVVKK; also: linked to keyhole limpet hemocyanin, peptide:KLH ~3:1)
chemotactic activity of KLH conjugate compared to C5a peptide [1]: most chemotactically active

Molecule: C peptide conjugate: peptide C (SEQ ID NO:6) linked to keyhole limpet hemocyanin, peptide:KLH approximately 3:1 (CVVASQLRANISHKDMQLGR; also: linked to keyhole limpet hemocyanin, peptide:KLH ~3:1)
chemotactic activity of KLH conjugate compared to C5a peptide [1]: almost as active

Molecule: CCYDGASVNNDETCEQRAAR (listed as Homo sapiens) [peptide M, residues 21-40 of human C5a peptide]
chemotactic response to peptide in medium alone [1]: did not per se induce any chemotactic responses
reduction in the chemotactic responses of neutrophils to human C5a [1]: approximately 20%
reducing the binding of hC5a peptide to human neutrophils [2]: significantly (p<0.05) competitive
inhibition of PMA-elicited H2O2 response [3]: strongest suppression

Molecule: CVVASQLRANISHKDMQLGR (listed as Homo sapiens) [peptide C, residues 55-74 of human C5a peptide]
chemotactic response to peptide in medium alone [1]: did not per se induce any chemotactic responses
reduction in the chemotactic responses of neutrophils to human C5a [1]: approximately 20%
reducing the binding of hC5a peptide to human neutrophils [2]: no statistically significant interference
inhibition of PMA-elicited H2O2 response [3]: to varying degrees

Molecule: M peptide conjugate: peptide M (SEQ ID NO:5) linked to keyhole limpet hemocyanin, peptide:KLH approximately 3:1 (CCYDGASVNNDETCEQRAAR; cysteine pairing not given here; also: linked to keyhole limpet hemocyanin, peptide:KLH ~3:1)
chemotactic activity of KLH conjugate compared to C5a peptide [1]: no chemotactic activity

Molecule: MLQKKIEEIAAKYKHSVVKK (listed as Homo sapiens) [peptide A, residues 1-20 of human C5a peptide]
chemotactic response to peptide in medium alone [1]: did not per se induce any chemotactic responses
reduction in the chemotactic responses of neutrophils to human C5a [1]: approximately 20%
reducing the binding of hC5a peptide to human neutrophils [2]: significantly (p<0.05) competitive
inhibition of PMA-elicited H2O2 response [3]: to varying degrees

chemotactic responses of neutrophils to human C5a [4]: 20%
Molecule: peptide C (residues 55-74 of human C5a peptide)

Mean Channel Fluorescence (binding value) (MCF (mean ± SEM)) [5]: 4.45
Molecule: preimmune IgG (antibody)

B1: MLQKKIEEIAAKYKHSVVKKCCYDGASVNNDETCEQRAARISLGPRCIKAFTECCVVASQLRANISHKDMQLGR (protein, listed as Homo sapiens)
chain: MLQKKIEEIAAKYKHSVVKKCCYDGASVNNDETCEQRAARISLGPRCIKAFTECCVVASQLRANISHKDMQLGR
notes: full length human complement component C5a peptide
inhibition of PMA-elicited H2O2 response [3]: inhibitable
effect on H2O2 production, peptide alone ([3]; without PMA): no effect
